Measurements published in US11680086B2, “Lipopeptide for potently inhibiting HIV, derivative thereof, pharmaceutical composition thereof and use thereof” (Institute of Pathogen Biology, Chinese Academy of Medical …, priority 2017, dated 2023).
Peptide text beside a SMILES is read from it. * marks the point of attachment. Palmitoyl = CCCCCCCCCCCCCCCC(=O)*

Columns and labels:
[1] = target: N39 (NHR-derived polypeptide of gp41) (Human immunodeficiency virus type 1 group M subtype B, UniProt P04578); type: binding, HIV-1; conditions: 10 μM each, PBS pH 7.2
[2] = system: SIV pseudoviruses SIVpbj and SIV239; test: inhibition of SIV pseudoviruses; type: cell-based
[3] = system: 35 HIV-1 pseudoviruses (subtypes A, B, B', C, G, A/C, A/E, B/C)

Sequence of N39 (NHR-derived polypeptide of gp41) (P04578 528-566): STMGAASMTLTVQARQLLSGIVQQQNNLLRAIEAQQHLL

CCCCCCCCCCCCCCCC(=O)NCCCC[C@H](NC(=O)[C@H](CCC(=O)O)NC(=O)[C@H](CC(C)C)NC(=O)[C@H](CCCCN)NC(=O)[C@H](CCCCN)NC(=O)[C@H](CC(C)C)NC(=O)[C@H](CCC(=O)O)NC(=O)[C@H](CCC(=O)O)NC(=O)[C@H](CCC(=O)O)NC(=O)[C@H](CC(N)=O)NC(=O)[C@H](CCCCN)NC(=O)[C@H](CCCCN)NC(=O)[C@H](CCC(N)=O)NC(=O)[C@H](CCC(N)=O)NC(=O)[C@H](CCC(=O)O)NC(=O)[C@H](CCC(=O)O)NC(=O)[C@H](C)NC(=O)[C@H](CCCCN)NC(=O)[C@H](CCCCN)NC(=O)[C@H](CC(C)C)NC(=O)[C@H](CC(C)C)NC(=O)[C@H](CCC(=O)O)NC(=O)[C@H](CCC(=O)O)NC(=O)[C@@H](NC(=O)[C@H](CCCCN)NC(=O)[C@H](CCC(N)=O)NC(=O)[C@H](CCC(=O)O)NC(=O)[C@H](Cc1c[nH]c2ccccc12)NC(C)=O)[C@@H](C)CC)C(N)=O [LP-52] (Ac-WEQKIEELLKKAEEQQKKNEEELKKLEK(Palmitoyl)-NH2)
Tm value of the complex with N39 [1]: 79.1 °C
helix content of the complex with N39 [1]: 63.8%
inhibitory activity against SIV (in words) [2]: extremely potent inhibitory activity
IC50 ([3]; read-out: average IC50 for inhibition of various types of HIV-1 pseudoviruses, average over 35 pseudoviruses): 0.016 nM
inhibitory activity against different subtypes of HIV-1 as folds of T-20 ([3]; relative to T-20, from average IC50): 2588 folds
